Measured values from PMC7747594, “Protease-activated receptor-2 ligands reveal orthosteric and allosteric mechanisms of receptor inhibition” (Communications Biology, 2020).
Where “and” joins values, the source holds several entries; their conditions need not be identical. Identical values can stand only once.

Assays:
mast cells = test: Mast cell staining (toluidine blue), activated/degranulated mast cells in rat paw; assay type: in vivo; design: Active mast cells (%): concentration or dose not given beside the values; conditions: for Active mast cells (%): 2f-induced rat paw oedema, individual animals (Figure 5b); for percentage activated/degranulated mast cells in paw induced by 2f-LIGRLO-NH2: pre-treatment, 30 min
Method: Tissues were then embedded with Optimal Cutting Temperature compound (OCT, Sakura Finetek, USA) and stored at −80 °C before making cryo-sections for histological analysis. Frozen sections (5 µm) were made using a cryostat-microtome (Leica Biosystems, Germany). […] Slides were then dehydrated and mounted in DPX mountant (Sigma-Aldrich, USA). For immunohistochemistry, slides were briefly rinsed with PBS to remove OCT. Except for tryptase staining, antigen retrieval was performed by incubating slides in citrate buffer (0.01 M, pH 6) at 95 °C for 20 min. They were then cooled down briefly and incubated with blocking medium (PBS, 0.1% Triton X-100, 10% horse serum) for 1 h at room temperature in a humidity chamber. Samples were incubated with primary antibody medium (PBS, 0.1% Triton X-100, 4% horse serum; 1:100 primary antibody including – histamine, neutrophil elastase or ED1 antibodies) overnight at 4 °C. The next day, samples were washed with PBS and incubated with the secondary antibody medium (PBS, 0.1% Triton X-100, 4% horse serum, detection antibody 1:200) for 2 h at room temperature. For tryptase staining, slides were incubated with primary antibody medium (as above with tryptase antibody at 1:100 dilution) for 4 h, then the secondary antibody medium for 2 h. Finally, slides were dried, counterstained with DAPI (Invitrogen, Australia), and sealed with clear nail polish. Primary antibodies for tryptase (AA1, ab2378, Abcam, Australia), histamine (H7403, Sigma-Aldrich, USA), neutrophil elastase (ab21595, Abcam, Australia) and ED1 (ab31630, Abcam, Australia) were purchased from commercial sources. Secondary detection antibody was purchased from Abcam, Australia.

[1] = target: T1, beta-tryptase (uniprot P20231) (Homo sapiens, UniProt P20231); test: Tryptase enzyme activity assay; assay type: biochemical; conditions: 10 µM, n=1
T1 construct: made in house; host or cells: Pichia pastoris
T1 sequence (P20231 31-275): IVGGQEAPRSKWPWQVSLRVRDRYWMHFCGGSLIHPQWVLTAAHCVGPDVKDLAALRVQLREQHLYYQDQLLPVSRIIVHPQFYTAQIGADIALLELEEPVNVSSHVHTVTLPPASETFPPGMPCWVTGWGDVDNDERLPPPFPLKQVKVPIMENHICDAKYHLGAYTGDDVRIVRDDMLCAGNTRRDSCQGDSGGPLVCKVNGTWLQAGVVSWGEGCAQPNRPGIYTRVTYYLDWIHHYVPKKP
Method: Tryptase Enzyme Activity Assay. The tryptase assay was carried out using beta-tryptase (uniprot P20231) produced in Pichia pastoris and using Tos-Gly-Pro-Lys-pNA as substrate (25 mM stock in ethanol) in 100 mM Tris pH 8.0, 100 mM NaCl, 10% glycerol, 0.5 mg mL-1 BSA, 0.1% DDM. Substrate (250 µM) was pre-incubated with test compound (10 µM) in assay buffer (200 ul) in clear bottom 96 well Greiner plates at room temperature. The re action was started by the addition of tryptase to a final concentration of 4.7 nM. Co nversion was recorded in a plate reader by monitoring the increase of absorption at λ = 405 nm over time. Activity was determined by linear fit of initial rate.

PAR2 = target: T2, PAR2 (Rattus norvegicus, UniProt Q63645); test: PAR2 agonist (2f-LIGRLO-NH2)-induced rat paw oedema, paw swelling; assay type: in vivo; conditions: for reduction of paw swelling: Wistar rats; for % swelling: 2f-induced rat paw oedema, individual animals (Figure 5a); for paw swelling: AZ3451 10 mg kg^−1 s.c. 30 min before, AZ8838 10 mg kg^−1 p.o. 2 h before 2f-LIGRLO-NH2; for anti-inflammatory activity in vivo after oral delivery / anti-inflammatory activity in vivo after subcutaneous injection: rat paw oedema
T2 construct: from tissue; host or cells: hind paw of male Wistar rats, in vivo
T2 sequence (Q63645 26-397): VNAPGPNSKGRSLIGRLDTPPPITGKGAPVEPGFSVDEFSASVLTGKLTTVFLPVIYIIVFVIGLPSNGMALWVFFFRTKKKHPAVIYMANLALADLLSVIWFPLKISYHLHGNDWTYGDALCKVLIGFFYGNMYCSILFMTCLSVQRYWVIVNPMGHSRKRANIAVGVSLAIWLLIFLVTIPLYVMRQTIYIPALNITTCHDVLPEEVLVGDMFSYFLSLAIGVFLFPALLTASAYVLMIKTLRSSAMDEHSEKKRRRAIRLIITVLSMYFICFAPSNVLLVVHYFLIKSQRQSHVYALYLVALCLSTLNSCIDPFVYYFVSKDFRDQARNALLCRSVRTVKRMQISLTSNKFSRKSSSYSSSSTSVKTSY
Method: Following Australian ethical standards, animals were air transported to the Institute for Bioengineering and Nanotechnology (University of Queensland, Australia). Animals were housed at room temperature and kept in 12 h light/dark cycles, with standard chow and water provided ad libitum, for at least a 48 h acclimatisation period before experiments. […] Saline only was given to sham paws. […] Control animals received either DMSO s.c. or 20% DMSO/80% olive oil via oral gavage. […] At the 30 min time point, a portion of animals was euthanised by CO2 inhalation and their paws collected for further analyses. All in vivo experimental procedures and animal handling were conducted with approval from the Animal Ethics Committee at the University of Queensland which follows NHMRC and ARRIVE guidelines. After experimentation, animals are humanely euthanized by CO2 inhalation as stipulated by the ethical agreements.
Experimental results were expressed as mean ± s.e.m. Graphs were plotted and data analysed using GraphPad Prism7. Statistical differences were assessed using Student’s t-tests (two-tailed) for data sets of two, one-way ANOVA for data sets of three or more with Bonferroni post-hoc tests, or two-way repeated-measures ANOVA with Tukey post-hoc tests for temporal data sets, as appropriate. Significance was set at ^+p < 0.05, ^++p < 0.01, ^+++p < 0.001, ^++++p < 0.0001 compared to sham, and *p < 0.05, **p < 0.01, ***p < 0.001, ****p < 0.0001 compared to disease control.

Structure (SMILES): C[C@@H](C1CCCCC1)n1c(-c2cc3c(cc2Br)OCO3)nc2cc(C(=O)Nc3ccc(C#N)cc3)ccc21 [AZ3451]
- Active mast cells (%) (mast cells): 40% and 57.0833% and 59.9284% and 37.5635% and 18.0263%
- percentage activated/degranulated mast cells in paw induced by 2f-LIGRLO-NH2 (mast cells): inhibited
- inhibition of tryptase activity [1]: no
- reduction of paw swelling (PAR2; 10 mg kg^−1 s.c. 30 min prior to 2f-LIGRLO-NH2 350 µg per paw): 60%
- % swelling (PAR2; Time 0 h): 0%
- % swelling (PAR2; Time 0.5 h): 48.3188% and 41.0115% and 38.4554% and 0.2044%
- % swelling (PAR2; Time 1 h): 31.4446% and 1.303% and 21.2807% and 5.312%
- % swelling (PAR2; Time 2 h): 1.7017% and 2.985% and 4.564% and -2.962%
- % swelling (PAR2; Time 4 h): 3.1932% and 1.708% and -5.029% and 2.557%
- paw swelling (PAR2): significantly reduced paw swelling
- anti-inflammatory activity in vivo after oral delivery (PAR2): not after oral delivery
- anti-inflammatory activity in vivo after subcutaneous injection (PAR2): active in vivo

Structure (SMILES): CCCc1cc(F)ccc1C(O)c1ncc[nH]1 (stereo not drawn) [AZ8838]
- Active mast cells (%) (mast cells): 57.5% and 42.6997% and 37.7451% and 42.5373% and 50%
- percentage activated/degranulated mast cells in paw induced by 2f-LIGRLO-NH2 (mast cells): inhibited
- inhibition of tryptase activity [1]: no
- reduction of paw swelling (PAR2; 10 mg kg^−1 p.o. 2 h prior to 2f-LIGRLO-NH2 350 µg per paw): 60%
- % swelling (PAR2; Time 0 h): 0%
- % swelling (PAR2; Time 0.5 h): 24.8579% and 43.6327% and 41.4698% and 6.42%
- % swelling (PAR2; Time 1 h): 17.7725% and 33.5029% and 21.2259% and 5.253%
- % swelling (PAR2; Time 2 h): -0.8821% and 11.1837% and 14.1177% and -4.556%
- % swelling (PAR2; Time 4 h): -4.225% and 3.626% and 12.7121% and -4.201%
- paw swelling (PAR2): significantly reduced paw swelling
- anti-inflammatory activity in vivo after oral delivery (PAR2): anti-inflammatory in vivo
- anti-inflammatory activity in vivo after subcutaneous injection (PAR2): anti-inflammatory in vivo
